What was measured:
[1] = target: Dual specificity mitogen-activated protein kinase kinase 1 (Homo sapiens) (UniProt Q02750); experiment: Inhibition of MAP2K1 (unknown origin) at 200 nM by ELISA
[2] = Growth inhibition of human PCI66 cells after 72 hrs by CCK-8 assay; format: functional, cell-based; conditions: PCI66, 72 h
[3] = target: Death-associated protein kinase 1 (Homo sapiens, UniProt P53355); experiment: Inhibition of DAPK1 (unknown origin) by electrophoretic mobility shift assay
Mus musculus = experiment: Toxicity in BALB/c nu/nu mouse xenografted with human PCI66 cells assessed as affect on body weight at 30 mg/kg, ip qd dosed for 5 days followed by 2 days cessation measured 33 days after tumor inoculation; format: organism-based; conditions: in vivo, 792 h
[4] = target: Serine/threonine-protein kinase Chk1 (Homo sapiens) (UniProt O14757); experiment: Inhibition of CHK1 (unknown origin) at 200 nM by electrophoretic mobility shift assay
[5] = target: Dual specificity tyrosine-phosphorylation-regulated kinase 1B (Homo sapiens) (UniProt Q9Y463); experiment: Inhibition of DYRK1B (unknown origin) at 200 nM by electrophoretic mobility shift assay
[6] = target: Tyrosine-protein kinase SYK (Homo sapiens) (UniProt P43405); experiment: Inhibition of SYK (unknown origin) at 200 nM by electrophoretic mobility shift assay
[7] = target: Serine/threonine-protein kinase PAK 4 (Homo sapiens) (UniProt O96013); experiment: Inhibition of PAK4 (unknown origin) at 200 nM by electrophoretic mobility shift assay
[8] = Growth inhibition of human PCI35 cells after 72 hrs by CCK-8 assay; format: functional, cell-based; conditions: PCI35, 72 h
[9] = target: Serine/threonine-protein kinase Sgk1 (Homo sapiens) (UniProt O00141); experiment: Inhibition of SGK (unknown origin) at 200 nM by electrophoretic mobility shift assay
[10] = target: Angiopoietin-1 receptor (Homo sapiens) (UniProt Q02763); experiment: Inhibition of TIE2 (unknown origin) at 200 nM by electrophoretic mobility shift assay
[11] = target: Ephrin type-A receptor 2 (Homo sapiens) (UniProt P29317); experiment: Inhibition of EPHA2 (unknown origin) at 200 nM by electrophoretic mobility shift assay
[12] = target: Rho-associated protein kinase 1 (Homo sapiens) (UniProt Q13464); experiment: Inhibition of ROCK1 (unknown origin) at 200 nM by electrophoretic mobility shift assay
[13] = target: Mitogen-activated protein kinase kinase kinase 9 (Homo sapiens) (UniProt P80192); experiment: Inhibition of MLK1 (unknown origin) at 200 nM by ELISA
[14] = target: Tyrosine-protein kinase JAK3 (Homo sapiens) (UniProt P52333); experiment: Inhibition of JAK3 (unknown origin) at 200 nM by electrophoretic mobility shift assay
[15] = target: Serine/threonine-protein kinase pim-1 (Homo sapiens, UniProt P11309); experiment: Inhibition of PIM1 (unknown origin) by electrophoretic mobility shift assay
[16] = target: Mitogen-activated protein kinase 1 (Homo sapiens) (UniProt P28482); experiment: Inhibition of Erk2 (unknown origin) at 200 nM by electrophoretic mobility shift assay
[17] = target: Inhibitor of nuclear factor kappa-B kinase subunit beta (Homo sapiens) (UniProt O14920); experiment: Inhibition of IKKbeta (unknown origin) at 200 nM by electrophoretic mobility shift assay
[18] = Growth inhibition of human MIAPaCa2 cells after 72 hrs by CCK-8 assay; format: functional, cell-based; conditions: MIA PaCa-2, 72 h
[19] = target: AMP-activated protein kinase, AMPK (Homo sapiens) (UniProt P54646+O43741+P54619+Q9UGJ0+Q9Y478+Q13131+Q9UGI9); experiment: Inhibition of AMPKalpha1/beta1/gama1 (unknown origin) at 200 nM by electrophoretic mobility shift assay; format: protein-complex assay
[20] = target: Fibroblast growth factor receptor 1 (Homo sapiens) (UniProt P11362); experiment: Inhibition of FGFR1 (unknown origin) at 200 nM by electrophoretic mobility shift assay
[21] = target: High affinity nerve growth factor receptor (Homo sapiens) (UniProt P04629); experiment: Inhibition of TRKA (unknown origin) at 200 nM by electrophoretic mobility shift assay
[22] = target: Glycogen synthase kinase-3 beta (Homo sapiens, UniProt P49841); experiment: Inhibition of GSK3beta (unknown origin) by electrophoretic mobility shift assay
[23] = target: Tyrosine-protein kinase receptor TYRO3 (Homo sapiens) (UniProt Q06418); experiment: Inhibition of TYRO3 (unknown origin) at 200 nM by electrophoretic mobility shift assay
[24] = target: Interleukin-1 receptor-associated kinase 4 (Homo sapiens) (UniProt Q9NWZ3); experiment: Inhibition of IRAK4 (unknown origin) at 200 nM by electrophoretic mobility shift assay
[25] = target: Serine/threonine-protein kinase Nek2 (Homo sapiens) (UniProt P51955); experiment: Inhibition of NEK2 (unknown origin) at 200 nM by electrophoretic mobility shift assay
[26] = target: Proto-oncogene tyrosine-protein kinase Src (Homo sapiens) (UniProt P12931); experiment: Inhibition of SRC (unknown origin) at 200 nM by electrophoretic mobility shift assay
[27] = Growth inhibition of human L3.6PL cells after 72 hrs by CCK-8 assay; format: functional
[28] = Antitumor activity against human PCI66 cells xenografted in BALB/c nu/nu mouse assessed as reduction in tumor volume at 30 mg/kg, ip qd dosed for 5 days followed by 2 days cessation measured 33 days after tumor inoculation relative to control; format: functional
[29] = target: Aurora kinase A (Homo sapiens) (UniProt O14965); experiment: Inhibition of AurA (unknown origin) at 200 nM by electrophoretic mobility shift assay
[30] = target: CDK2/Cyclin A2 (Homo sapiens) (UniProt P24941+P20248); experiment: Inhibition of CDK2/CycA2 (unknown origin) at 200 nM by electrophoretic mobility shift assay; format: protein-complex assay
[31] = target: cAMP-dependent protein kinase catalytic subunit alpha (Homo sapiens) (UniProt P17612); experiment: Inhibition of PKACalpha (unknown origin) at 200 nM by electrophoretic mobility shift assay
[32] = target: Platelet-derived growth factor receptor alpha (Homo sapiens) (UniProt P16234); experiment: Inhibition of PDGFRalpha (unknown origin) at 200 nM by electrophoretic mobility shift assay
[33] = target: Receptor-type tyrosine-protein kinase FLT3 (Homo sapiens) (UniProt P36888); experiment: Inhibition of FLT3 (unknown origin) at 200 nM by electrophoretic mobility shift assay
CYP2C19 = CYP2C19 (Homo sapiens, UniProt P33261); experiment: Inhibition of CYP2C19 (unknown origin) at 10 uM; format: ADME
[34] = target: MAP kinase-activated protein kinase 2 (Homo sapiens) (UniProt P49137); experiment: Inhibition of MAPKAPK2 (unknown origin) at 200 nM by electrophoretic mobility shift assay

Chain of Mitogen-activated protein kinase kinase kinase 9 (Homo sapiens) (P80192 whole entry, looked up): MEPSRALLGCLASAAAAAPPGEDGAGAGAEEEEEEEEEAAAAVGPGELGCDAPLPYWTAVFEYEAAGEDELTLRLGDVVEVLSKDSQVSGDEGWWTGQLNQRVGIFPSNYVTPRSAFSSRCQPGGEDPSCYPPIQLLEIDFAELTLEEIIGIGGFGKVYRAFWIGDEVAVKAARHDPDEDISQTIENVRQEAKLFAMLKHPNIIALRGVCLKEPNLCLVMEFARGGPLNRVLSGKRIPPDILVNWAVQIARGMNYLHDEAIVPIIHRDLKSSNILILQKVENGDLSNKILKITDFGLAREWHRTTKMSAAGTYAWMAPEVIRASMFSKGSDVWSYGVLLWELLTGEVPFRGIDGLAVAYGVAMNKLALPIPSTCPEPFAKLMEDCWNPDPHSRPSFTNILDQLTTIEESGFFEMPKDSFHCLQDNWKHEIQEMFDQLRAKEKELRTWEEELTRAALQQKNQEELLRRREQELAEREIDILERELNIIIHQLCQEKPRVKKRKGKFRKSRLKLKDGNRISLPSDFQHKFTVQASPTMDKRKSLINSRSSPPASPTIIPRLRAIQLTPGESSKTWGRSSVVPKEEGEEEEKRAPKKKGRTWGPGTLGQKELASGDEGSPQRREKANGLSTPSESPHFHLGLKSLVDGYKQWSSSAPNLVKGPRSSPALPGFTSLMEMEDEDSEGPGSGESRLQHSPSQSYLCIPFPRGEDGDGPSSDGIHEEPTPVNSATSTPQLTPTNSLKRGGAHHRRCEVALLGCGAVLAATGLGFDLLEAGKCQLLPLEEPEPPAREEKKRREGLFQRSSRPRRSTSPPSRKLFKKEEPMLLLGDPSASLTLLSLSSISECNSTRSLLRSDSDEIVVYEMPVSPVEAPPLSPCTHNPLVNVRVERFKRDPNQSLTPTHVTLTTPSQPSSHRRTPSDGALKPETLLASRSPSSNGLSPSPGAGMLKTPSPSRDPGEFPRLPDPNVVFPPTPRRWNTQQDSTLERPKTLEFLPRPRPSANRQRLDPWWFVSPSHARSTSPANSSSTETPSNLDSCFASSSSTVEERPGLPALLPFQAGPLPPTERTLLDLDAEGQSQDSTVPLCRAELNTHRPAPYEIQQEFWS
Chain of Angiopoietin-1 receptor (Homo sapiens) (Q02763 whole entry): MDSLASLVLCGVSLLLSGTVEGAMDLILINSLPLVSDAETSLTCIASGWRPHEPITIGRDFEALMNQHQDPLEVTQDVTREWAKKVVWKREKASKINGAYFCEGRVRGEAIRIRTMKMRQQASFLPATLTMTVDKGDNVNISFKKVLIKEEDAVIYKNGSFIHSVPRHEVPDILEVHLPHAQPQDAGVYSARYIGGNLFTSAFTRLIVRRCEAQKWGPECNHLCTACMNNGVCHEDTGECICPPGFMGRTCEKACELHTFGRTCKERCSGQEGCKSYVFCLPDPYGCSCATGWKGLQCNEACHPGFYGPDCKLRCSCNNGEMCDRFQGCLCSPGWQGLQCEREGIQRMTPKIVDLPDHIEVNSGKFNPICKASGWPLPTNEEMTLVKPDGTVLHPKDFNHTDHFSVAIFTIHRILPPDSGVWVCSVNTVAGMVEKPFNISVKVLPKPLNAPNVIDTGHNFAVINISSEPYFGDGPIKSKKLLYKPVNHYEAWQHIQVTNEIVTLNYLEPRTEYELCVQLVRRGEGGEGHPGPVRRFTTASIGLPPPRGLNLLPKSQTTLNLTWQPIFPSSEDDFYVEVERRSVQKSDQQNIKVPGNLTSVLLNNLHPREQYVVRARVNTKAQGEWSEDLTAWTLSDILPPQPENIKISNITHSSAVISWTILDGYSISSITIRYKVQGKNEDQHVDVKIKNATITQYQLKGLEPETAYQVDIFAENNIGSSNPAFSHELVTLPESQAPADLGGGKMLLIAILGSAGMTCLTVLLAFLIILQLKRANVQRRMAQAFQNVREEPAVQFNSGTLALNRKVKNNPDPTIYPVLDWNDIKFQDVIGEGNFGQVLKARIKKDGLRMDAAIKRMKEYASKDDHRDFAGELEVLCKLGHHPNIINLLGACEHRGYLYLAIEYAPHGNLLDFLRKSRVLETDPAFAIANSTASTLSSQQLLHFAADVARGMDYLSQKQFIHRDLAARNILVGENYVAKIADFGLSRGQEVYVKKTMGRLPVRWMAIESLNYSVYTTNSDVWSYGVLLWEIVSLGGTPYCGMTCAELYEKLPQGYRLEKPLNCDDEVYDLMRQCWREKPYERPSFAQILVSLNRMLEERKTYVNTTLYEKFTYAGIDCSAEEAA
Chain of Serine/threonine-protein kinase PAK 4 (Homo sapiens) (O96013 whole entry, looked up): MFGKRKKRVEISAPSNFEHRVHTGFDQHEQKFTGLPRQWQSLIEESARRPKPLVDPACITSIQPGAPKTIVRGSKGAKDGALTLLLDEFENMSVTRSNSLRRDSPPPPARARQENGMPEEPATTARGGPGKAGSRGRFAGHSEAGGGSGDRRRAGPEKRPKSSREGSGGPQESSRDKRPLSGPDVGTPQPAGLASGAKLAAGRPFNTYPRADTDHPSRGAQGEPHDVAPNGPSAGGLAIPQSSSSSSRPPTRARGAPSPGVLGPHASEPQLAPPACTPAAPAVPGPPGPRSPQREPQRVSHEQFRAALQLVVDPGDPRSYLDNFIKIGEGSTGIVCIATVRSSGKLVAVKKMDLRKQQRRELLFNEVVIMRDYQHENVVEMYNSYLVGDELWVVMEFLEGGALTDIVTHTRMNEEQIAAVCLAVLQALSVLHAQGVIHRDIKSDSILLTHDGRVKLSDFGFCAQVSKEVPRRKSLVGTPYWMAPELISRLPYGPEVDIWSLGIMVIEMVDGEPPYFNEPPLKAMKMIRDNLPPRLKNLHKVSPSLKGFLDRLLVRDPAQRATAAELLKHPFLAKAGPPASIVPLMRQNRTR
Chain of Tyrosine-protein kinase receptor TYRO3 (Homo sapiens) (Q06418 whole entry): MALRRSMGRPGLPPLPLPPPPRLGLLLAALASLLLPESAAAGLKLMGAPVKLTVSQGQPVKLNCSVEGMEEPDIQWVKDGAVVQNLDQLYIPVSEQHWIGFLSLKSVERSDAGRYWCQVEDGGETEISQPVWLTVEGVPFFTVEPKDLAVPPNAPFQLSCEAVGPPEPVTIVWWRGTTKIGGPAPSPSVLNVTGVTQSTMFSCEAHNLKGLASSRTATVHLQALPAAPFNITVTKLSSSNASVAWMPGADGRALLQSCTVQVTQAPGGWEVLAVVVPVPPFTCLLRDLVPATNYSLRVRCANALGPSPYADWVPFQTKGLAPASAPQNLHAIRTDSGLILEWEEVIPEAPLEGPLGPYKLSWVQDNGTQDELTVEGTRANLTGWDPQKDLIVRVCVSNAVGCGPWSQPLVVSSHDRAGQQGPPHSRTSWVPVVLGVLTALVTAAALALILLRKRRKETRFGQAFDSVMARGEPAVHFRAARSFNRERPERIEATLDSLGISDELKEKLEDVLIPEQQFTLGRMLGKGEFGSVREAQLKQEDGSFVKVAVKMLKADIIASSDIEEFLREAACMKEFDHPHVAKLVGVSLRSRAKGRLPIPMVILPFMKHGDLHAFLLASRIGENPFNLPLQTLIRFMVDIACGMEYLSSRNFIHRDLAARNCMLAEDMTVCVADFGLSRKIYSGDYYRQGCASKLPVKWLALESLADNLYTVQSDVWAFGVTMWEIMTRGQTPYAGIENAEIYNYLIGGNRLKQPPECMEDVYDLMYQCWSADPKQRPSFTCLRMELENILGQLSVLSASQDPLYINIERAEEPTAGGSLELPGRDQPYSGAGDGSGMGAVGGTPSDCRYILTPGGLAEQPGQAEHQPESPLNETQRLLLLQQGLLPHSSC
Chain of Serine/threonine-protein kinase Sgk1 (Homo sapiens) (O00141 whole entry): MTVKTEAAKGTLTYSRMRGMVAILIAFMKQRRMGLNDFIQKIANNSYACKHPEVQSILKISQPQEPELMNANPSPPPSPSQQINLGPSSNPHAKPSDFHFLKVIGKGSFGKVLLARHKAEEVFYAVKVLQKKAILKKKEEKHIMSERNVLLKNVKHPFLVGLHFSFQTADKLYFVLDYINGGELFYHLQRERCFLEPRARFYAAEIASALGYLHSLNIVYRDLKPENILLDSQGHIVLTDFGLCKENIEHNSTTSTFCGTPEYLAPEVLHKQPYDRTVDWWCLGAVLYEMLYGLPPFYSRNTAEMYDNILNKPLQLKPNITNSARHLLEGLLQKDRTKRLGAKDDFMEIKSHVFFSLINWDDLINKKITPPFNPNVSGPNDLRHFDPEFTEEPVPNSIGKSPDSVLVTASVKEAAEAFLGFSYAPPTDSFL
Chain of Serine/threonine-protein kinase Chk1 (Homo sapiens) (O14757 whole entry): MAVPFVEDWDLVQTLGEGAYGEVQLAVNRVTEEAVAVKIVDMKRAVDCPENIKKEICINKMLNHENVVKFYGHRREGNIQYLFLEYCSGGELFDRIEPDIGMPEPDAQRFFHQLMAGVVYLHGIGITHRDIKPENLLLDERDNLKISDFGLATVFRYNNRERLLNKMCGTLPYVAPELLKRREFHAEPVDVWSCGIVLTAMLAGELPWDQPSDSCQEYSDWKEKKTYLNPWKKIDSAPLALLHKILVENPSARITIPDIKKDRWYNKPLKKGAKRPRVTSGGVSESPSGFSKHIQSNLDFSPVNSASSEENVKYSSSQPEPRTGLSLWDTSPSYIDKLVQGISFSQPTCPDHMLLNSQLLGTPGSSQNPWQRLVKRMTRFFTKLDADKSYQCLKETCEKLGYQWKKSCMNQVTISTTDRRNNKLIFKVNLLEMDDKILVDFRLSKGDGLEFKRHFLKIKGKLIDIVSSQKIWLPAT
Chain of Interleukin-1 receptor-associated kinase 4 (Homo sapiens) (Q9NWZ3 whole entry): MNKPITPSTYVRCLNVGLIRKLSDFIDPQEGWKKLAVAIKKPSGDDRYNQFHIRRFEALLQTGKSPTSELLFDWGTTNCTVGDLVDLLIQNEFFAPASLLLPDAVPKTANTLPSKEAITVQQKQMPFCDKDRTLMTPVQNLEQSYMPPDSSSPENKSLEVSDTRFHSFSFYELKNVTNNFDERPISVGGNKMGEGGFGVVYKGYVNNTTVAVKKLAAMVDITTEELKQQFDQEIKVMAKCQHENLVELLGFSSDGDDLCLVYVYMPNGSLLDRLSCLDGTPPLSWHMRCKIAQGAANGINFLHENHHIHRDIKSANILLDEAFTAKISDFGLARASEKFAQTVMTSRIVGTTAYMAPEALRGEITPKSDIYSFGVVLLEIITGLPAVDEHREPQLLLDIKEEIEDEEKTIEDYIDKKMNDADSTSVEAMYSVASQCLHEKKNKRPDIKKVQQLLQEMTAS

COc1ccc2c(c1C(C)N1CCNCC1)O/C(=C\c1n[nH]c3ncccc13)C2=O (configuration not stated) gave an inhibition [1] of -0.4%, an IC50 [2] of 3.8 µM and an IC50 [3] of 0.012 µM. For the same compound, the Activity (Mus musculus) was “Non-toxic”, the inhibition [4] was 4.1% and the inhibition [5] was 48%. It also gave an inhibition [6] of 5.3%, an inhibition [7] of -6.7% and an IC50 [8] of 5.1 µM. The inhibition [9] was 0.6%, the inhibition [10] was 0.8% and the inhibition [11] was -0.3%. For the same compound, the inhibition [12] was 77%, the inhibition [13] was -1.8% and the inhibition [14] was 4.4%. The IC50 [15] was 0.0019 µM, the inhibition [16] was 0.2% and the inhibition [17] was -2.8%. The IC50 [18] was 3.5 µM, the inhibition [19] was 8.6% and the inhibition [20] was 3.1%. It also gave an inhibition [21] of 10.3%, an IC50 [22] of 0.0061 µM and an inhibition [23] of 3.5%. It also gave an inhibition [24] of -0.6%, an inhibition [25] of -4% and an inhibition [26] of 0.7%. For the same compound, the IC50 [27] was 6.3 µM, the inhibition in vivo at 30 mg/kg [28] was 52.5% and the inhibition [29] was -0.4%. For the same compound, the inhibition [30] was 13.7%, the inhibition [31] was 18.4% and the inhibition [32] was 24.2%. It also gave an inhibition [33] of 68% and an inhibition at 10 µM (CYP2C19) of 16%.

COc1ccc2c(c1CN1CCNCC1)O/C(=C\c1n[nH]c3ncccc13)C2=O gave an inhibition [1] of -7.7%, an inhibition [4] of 9.2% and an inhibition [5] of 24.8%. It also gave an inhibition [34] of -1.2%, an inhibition [6] of -7.5% and an inhibition [7] of 13%. It also gave an inhibition [9] of 4.3%, an inhibition [10] of 0% and an inhibition [11] of -2.2%. For the same compound, the inhibition [12] was 88.9%, the inhibition [13] was -3.4% and the inhibition [14] was 1.5%. For the same compound, the inhibition [16] was 4.9%, the inhibition [17] was 4.1% and the inhibition [19] was 1.3%. The inhibition [20] was -4%, the inhibition [21] was 1.8% and the inhibition [23] was -2.7%. The inhibition [24] was -3.8%, the inhibition [25] was -2.1% and the inhibition [26] was -0.9%. It also gave an inhibition [29] of 5.1%, an inhibition [30] of 28.2% and an inhibition [31] of 4%. For the same compound, the inhibition [32] was 5.4%, the inhibition [33] was 55.5% and the inhibition at 10 µM (CYP2C19) was less than 1%.
